Data: ChEMBL document CHEMBL1201862, “PubChem BioAssay data set” (2004)
Active and inactive are the calls of the source.

Tests used:
[1] = Luminescence Cell-Based Dose Confirmation HTS to Identify Inhibitors of Platelet Dense Granule Release. [Related pubchem assays: 1663 (Primary HTS), 1678 (Summary of Project)]; type: functional
[2] = target: T1, High affinity choline transporter 1 (Homo sapiens, UniProt Q9GZV3); assay: human choline transporter blockers, potency – cell-based, 5-point CRC, membrane potential dye, dose response (AID 504840); type: functional
T1 sequence (Q9GZV3 whole entry): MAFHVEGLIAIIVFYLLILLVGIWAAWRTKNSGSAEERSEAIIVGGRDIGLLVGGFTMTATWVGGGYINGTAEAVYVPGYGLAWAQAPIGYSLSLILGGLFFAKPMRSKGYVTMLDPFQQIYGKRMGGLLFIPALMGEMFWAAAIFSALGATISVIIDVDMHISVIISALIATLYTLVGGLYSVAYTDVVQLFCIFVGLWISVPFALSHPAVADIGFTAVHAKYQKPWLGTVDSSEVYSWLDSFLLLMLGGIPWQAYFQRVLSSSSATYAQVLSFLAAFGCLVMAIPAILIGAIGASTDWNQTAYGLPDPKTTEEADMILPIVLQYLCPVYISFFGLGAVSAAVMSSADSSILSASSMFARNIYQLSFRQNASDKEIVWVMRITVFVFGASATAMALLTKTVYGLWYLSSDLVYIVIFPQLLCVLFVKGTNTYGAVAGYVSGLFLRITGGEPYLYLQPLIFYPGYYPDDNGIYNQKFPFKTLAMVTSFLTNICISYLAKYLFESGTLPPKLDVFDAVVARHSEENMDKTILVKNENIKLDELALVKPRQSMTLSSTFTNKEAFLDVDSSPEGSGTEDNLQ

[3] = target: Luciferin 4-monooxygenase (Photinus pyralis, UniProt P08659); assay: inhibition of purified Photinus pyralis luciferase – biochemical, luminescence, dose response (AID 1891)
[4] = target: T2, Corticotropin-releasing factor receptor 2/Corticotropin-releasing factor-binding protein (Homo sapiens, UniProt P24387+Q13324); assay: activators of CRF receptor 2 with binding protein – uHTS hits, confirmation (AID 602473); type: functional; conditions: read-out: EC50_Mean
T2 sequence (Q13324 whole entry): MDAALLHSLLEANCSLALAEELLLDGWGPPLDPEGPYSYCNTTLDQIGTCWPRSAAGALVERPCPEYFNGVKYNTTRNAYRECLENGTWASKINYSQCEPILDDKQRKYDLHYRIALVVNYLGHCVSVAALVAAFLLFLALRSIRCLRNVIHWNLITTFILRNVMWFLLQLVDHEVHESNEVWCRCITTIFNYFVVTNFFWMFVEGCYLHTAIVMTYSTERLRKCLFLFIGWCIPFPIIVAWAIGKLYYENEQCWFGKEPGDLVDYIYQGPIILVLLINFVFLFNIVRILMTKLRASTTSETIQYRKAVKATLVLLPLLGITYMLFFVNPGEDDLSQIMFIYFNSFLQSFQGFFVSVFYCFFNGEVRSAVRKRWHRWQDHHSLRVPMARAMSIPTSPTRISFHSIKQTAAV
T2 sequence (P24387 whole entry): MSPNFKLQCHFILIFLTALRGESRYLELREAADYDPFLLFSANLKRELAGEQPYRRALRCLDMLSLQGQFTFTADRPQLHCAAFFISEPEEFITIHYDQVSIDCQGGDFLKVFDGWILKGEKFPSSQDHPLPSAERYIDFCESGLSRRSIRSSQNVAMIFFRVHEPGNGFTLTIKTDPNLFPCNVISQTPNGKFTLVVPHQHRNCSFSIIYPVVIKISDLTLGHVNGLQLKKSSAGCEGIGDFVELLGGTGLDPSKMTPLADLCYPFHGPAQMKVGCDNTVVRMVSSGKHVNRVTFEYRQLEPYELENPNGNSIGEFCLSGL

[5] = target: T2, Corticotropin-releasing factor receptor 2/Corticotropin-releasing factor-binding protein; assay: Dose Response confirmation of uHTS hits for small molecule antagonists of the CRF-binding protein and CRF-R2 receptor complex.; type: functional; conditions: read-out: IC50_Mean
[6] = target: T3, Short transient receptor potential channel 4 (Mus musculus, UniProt Q9QUQ5); assay: block of DAMGO-driven TRPC4 calcium entry – cell-based, HEK293 TRPC4/mu-opioid, Fluo-4 calcium, dose response (AID 434942); type: functional;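 note: potency of inhibitors blocking the TRPC4 calcium response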
T3 sequence (Q9QUQ5 whole entry): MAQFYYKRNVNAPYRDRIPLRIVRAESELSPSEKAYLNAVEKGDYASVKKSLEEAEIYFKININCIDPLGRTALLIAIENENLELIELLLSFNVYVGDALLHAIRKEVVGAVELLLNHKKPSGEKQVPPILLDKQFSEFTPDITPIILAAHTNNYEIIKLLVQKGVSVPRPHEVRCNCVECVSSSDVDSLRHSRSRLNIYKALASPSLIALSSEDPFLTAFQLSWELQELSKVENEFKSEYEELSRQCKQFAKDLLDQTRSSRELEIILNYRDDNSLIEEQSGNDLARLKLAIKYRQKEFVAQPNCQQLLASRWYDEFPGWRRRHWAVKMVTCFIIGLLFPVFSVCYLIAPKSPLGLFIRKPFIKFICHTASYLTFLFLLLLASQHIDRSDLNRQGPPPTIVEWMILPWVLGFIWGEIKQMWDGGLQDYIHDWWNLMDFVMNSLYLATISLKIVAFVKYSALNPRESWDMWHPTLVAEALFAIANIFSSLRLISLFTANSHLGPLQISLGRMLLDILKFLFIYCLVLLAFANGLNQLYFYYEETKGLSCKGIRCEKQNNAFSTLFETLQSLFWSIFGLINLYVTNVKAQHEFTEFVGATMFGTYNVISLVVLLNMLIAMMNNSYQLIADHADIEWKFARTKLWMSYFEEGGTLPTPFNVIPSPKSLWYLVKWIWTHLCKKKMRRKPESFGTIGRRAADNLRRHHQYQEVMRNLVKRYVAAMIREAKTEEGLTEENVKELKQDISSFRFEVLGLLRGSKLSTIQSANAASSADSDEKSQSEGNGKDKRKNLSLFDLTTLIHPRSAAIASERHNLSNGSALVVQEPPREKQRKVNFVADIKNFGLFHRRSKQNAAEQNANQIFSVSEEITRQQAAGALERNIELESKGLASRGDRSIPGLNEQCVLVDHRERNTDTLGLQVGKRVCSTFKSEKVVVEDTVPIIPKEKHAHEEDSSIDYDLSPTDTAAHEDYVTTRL

[7] = target: Glyceraldehyde-3-phosphate dehydrogenase (Homo sapiens, UniProt P04406)
Streptococcus = assay: GAS UMAA2166 growth inhibition – luminescence, BacTiterGlo, counter-screen for streptokinase expression inhibitor project, dose response (AID 1915); type: functional, organism-based;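 note: potency for reduction of bacterial viability or growth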
[8] = system: Streptococcus sp. 'group A'; assay: Streptococcus pyogenes SK(-)GAS viability under kanamycin – luminescence, BacTiterGlo, confirmation, counter-screen for streptokinase expression inhibitor project, dose response (AID 1900); type: functional, organism-based
Streptokinase A = target: T4, Streptokinase A (Streptococcus pyogenes serotype M1, UniProt P10520); assay: viability-normalized secreted streptokinase activity reduction – plasminogen activation absorbance, OD405, dose response (AID 1914); type: functional, Streptococcus pyogenes M1 GAS;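 note: secreted streptokinase activity via plasminogen activation per viability signal from cell pellet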
T4 sequence (P10520 whole entry): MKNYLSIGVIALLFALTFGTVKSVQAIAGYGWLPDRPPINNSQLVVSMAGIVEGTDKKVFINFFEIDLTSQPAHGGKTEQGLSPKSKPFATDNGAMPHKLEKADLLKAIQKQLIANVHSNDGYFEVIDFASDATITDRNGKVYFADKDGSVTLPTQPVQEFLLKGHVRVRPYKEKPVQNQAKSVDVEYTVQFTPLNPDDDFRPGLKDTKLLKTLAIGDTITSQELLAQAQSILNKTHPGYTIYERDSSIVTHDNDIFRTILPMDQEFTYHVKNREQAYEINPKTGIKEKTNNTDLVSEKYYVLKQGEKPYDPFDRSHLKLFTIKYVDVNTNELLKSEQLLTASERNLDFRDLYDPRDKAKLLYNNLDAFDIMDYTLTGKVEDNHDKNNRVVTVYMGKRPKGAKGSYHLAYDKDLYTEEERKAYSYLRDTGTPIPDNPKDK

[9] = Trypanosoma cruzi growth suppression in host cells – NIH3T3 host cells, beta-gal luminescence, confirmation (AID 2044); type: functional, cell-based;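 note: intracellular parasites grown in NIH/3T3 mouse fibroblasts as host cells; luminescent beta-galactosidase reporter signal from transgenic T. cruzi replicating inside host cells; inhibitors lower the luminescence signal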
[10] = target: Heat shock protein HSP 90-alpha (Homo sapiens, UniProt P07900); type: functional, organism-based
[11] = NIH3T3 cell viability loss – ATP luminescence, mouse fibroblasts, counter-screen, dose response (AID 2010); type: functional, cell-based;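 note: cells exposed to compound for about 90 hours before reading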
[12] = general mammalian cell viability loss – inhibitor set, cherry-pick, set 2, cytotoxicity control for miR-122 modulator project, dose response (AID 720697); type: functional, cell-based

Luciferin 4-monooxygenase, sequence (P08659 whole entry): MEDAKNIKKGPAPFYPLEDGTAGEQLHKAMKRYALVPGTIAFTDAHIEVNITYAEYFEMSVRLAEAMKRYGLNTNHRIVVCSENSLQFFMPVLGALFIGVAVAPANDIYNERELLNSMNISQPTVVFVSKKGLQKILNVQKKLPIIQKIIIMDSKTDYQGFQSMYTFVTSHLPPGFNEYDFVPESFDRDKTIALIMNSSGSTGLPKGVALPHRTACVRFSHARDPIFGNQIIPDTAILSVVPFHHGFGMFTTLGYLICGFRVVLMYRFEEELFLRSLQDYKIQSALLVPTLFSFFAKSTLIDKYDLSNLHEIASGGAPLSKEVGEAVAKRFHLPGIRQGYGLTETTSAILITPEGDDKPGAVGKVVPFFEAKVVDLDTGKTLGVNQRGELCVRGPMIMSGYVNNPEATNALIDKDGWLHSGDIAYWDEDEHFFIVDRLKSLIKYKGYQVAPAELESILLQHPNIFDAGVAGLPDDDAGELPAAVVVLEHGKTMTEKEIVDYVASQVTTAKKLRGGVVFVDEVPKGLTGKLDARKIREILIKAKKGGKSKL
Glyceraldehyde-3-phosphate dehydrogenase, sequence (P04406 whole entry): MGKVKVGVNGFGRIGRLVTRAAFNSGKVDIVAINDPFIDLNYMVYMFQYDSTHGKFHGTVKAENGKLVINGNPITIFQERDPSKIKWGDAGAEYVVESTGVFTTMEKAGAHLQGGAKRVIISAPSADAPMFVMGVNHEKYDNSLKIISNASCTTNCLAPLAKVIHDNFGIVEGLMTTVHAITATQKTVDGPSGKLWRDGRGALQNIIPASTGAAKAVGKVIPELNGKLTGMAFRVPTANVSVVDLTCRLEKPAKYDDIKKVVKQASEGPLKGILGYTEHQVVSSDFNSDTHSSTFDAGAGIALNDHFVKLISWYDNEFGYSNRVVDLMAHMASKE

With `COc1cc2c(cc1OC)-c1cc(NC3CCCCCC3)nc(=O)n1CC2` as the compound, how does the EC50 [1] read?
Its EC50 is 2.94 µM (active).

And the IC50 [2]?
Its IC50 is 12.9 µM (active).

And the EC50 [3]?
The EC50 was > 112 µM (not active).

Which EC50 [4] does the source give for `Cc1ccc(NC(=O)c2ncn(CCCNCC3CCCO3)n2)cc1C` (centres undefined) here?
Its EC50 is > 53 µM (inactive).

What about the IC50 [5] of the same compound?
The IC50 was > 47.1 µM (inactive).

For `CCC(C)NC(=O)Cn1cnc2sc(C)c(S(=O)(=O)N3CCCCC3)c2c1=O` (centres undefined), which EC50 [4] is on record?
The EC50 was > 53 µM (inactive).

What about the IC50 [5] of the same compound?
The IC50 was > 47.1 µM (inactive).

For `O=[N+]([O-])c1cccc(CSc2nnc3ccccn23)c1`, which IC50 [2] is on record?
The IC50 was 16.6 µM (active).

With `COCCN1CC(=O)N(c2cccc(C)c2C)C(c2ccc(Cl)cc2)C1=O` (centres undefined) as the compound, how does the EC50 [4] read?
The EC50 was > 53 µM (inactive).

And the IC50 [5]?
The IC50 was > 47.1 µM (inactive).

Which EC50 [6] does the source give for `CCOc1ccc2ccccc2c1CNCCc1ccc(S(N)(=O)=O)cc1` here?
Its EC50 is 4.73 µM (active).

For `CCCC1CC(C#N)N(N(C)C)C1=C(C#N)C#N` (centres undefined), which EC50 [4] is on record?
Its EC50 is > 53 µM (inactive).

What about the IC50 [5] of the same compound?
Its IC50 is > 47.1 µM (inactive).

With `Cc1ccc(N2C(=O)C(Cl)=C(N3CCN(Cc4ccc5c(c4)OCO5)CC3)C2=O)cc1` as the compound, how does the IC50 [7] read?
Its IC50 is > 50 µM (inconclusive).

What does the source list for `Cc1nn2c(NCc3ccccn3)cc(C(C)(C)C)nc2c1-c1ccccc1`?
EC50 (Streptococcus): 5.79 µM (active); EC50 [8]: 3.41 µM (active); EC50 (Streptokinase A): > 150 µM (not active); EC50 [9]: 2.21 µM (active); AC50 [10]: 1.78 µM (active); EC50 [11]: > 60 µM (not active)

For `CCn1cc(/C=C(\NC(=O)c2ccccc2F)C(=O)N2CCOCC2)c2ccccc21`, which IC50 [2] is on record?
The IC50 was 15.6 µM (active).

With `CCN(CC)c1nc2ccccc2c(N)c1-c1ccccc1` as the compound, how does the EC50 [6] read?
The EC50 was 2.66 µM (active).

Which AC50 [12] does the source give for `CNc1nc(NCC2CCCCC2)c2sccc2n1` here?
Its AC50 is 3.63 µM (active).

With `CCOC(=O)C1CN(S(=O)(=O)c2ccccc2)CCN1S(=O)(=O)c1ccccc1` (centres undefined) as the compound, how does the AC50 [12] read?
Its AC50 is 1.54 µM (active).
